Experimental data: patent US8288552B2, “Dihydropyridone amidesas P2X7 modulators” (Roche Palo Alto LLC, priority 2008, dated 2012)

biological target: T1, P2X7 (UniProt Q99572); test: P2X7 pKi of Table 1; assay type: cell-based
T1 sequence (Q99572 1-595): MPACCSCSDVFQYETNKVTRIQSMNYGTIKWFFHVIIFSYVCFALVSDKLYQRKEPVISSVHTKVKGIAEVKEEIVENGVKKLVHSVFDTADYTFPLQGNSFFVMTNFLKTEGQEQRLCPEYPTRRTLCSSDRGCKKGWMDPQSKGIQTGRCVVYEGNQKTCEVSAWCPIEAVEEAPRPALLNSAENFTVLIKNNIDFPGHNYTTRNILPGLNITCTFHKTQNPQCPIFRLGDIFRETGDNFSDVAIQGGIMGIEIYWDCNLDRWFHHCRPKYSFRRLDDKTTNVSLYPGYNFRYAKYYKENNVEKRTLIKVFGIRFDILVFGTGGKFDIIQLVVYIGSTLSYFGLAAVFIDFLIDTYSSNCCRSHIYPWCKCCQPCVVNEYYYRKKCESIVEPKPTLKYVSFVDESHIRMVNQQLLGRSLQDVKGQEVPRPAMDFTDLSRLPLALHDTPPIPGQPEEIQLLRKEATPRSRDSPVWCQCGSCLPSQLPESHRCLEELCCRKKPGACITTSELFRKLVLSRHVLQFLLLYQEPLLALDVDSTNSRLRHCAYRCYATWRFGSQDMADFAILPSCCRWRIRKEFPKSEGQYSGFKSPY
Description: Intracellular Calcium Flux (FLIPR) Assay
Compound and Reagent Preparation
Stock solutions of compounds were prepared from powders as a 10 mM DMSO stock solution. These solutions were stored at RT during the two week period of these experiments to prevent freeze-thaw of the DMSO stocks. The DMSO stocks were added to the appropriate assay buffer at a concentration of 10 μM, and then diluted serially to the final concentrations that were tested. […] The aqueous solutions of compounds as well as ATP (Sigma A7699) and BzATP (Sigma B6396) were prepared fresh for each day of experiment.
1321N1 cells stably expressing the full length human P2X7 gene (1321N1-hP2X7) and HEK293 cells stably expressing the full length rat P2X7 gene (HEK293-rP2X7) were obtained from the Roche Cell Culture Facility. 1321N1-hP2X7 cells were grown in Dulbecco's Modified Eagle's Medium (DMEM) high glucose supplemented with 10% FBS and 250 μg/mL G418. HEK293-rP2X7 cells were grown in DMEM/F-12 supplemented with 10% FBS, 1 mM CaCl2, 2 mM MgCl2, 2 mM L-Glutamine and 500 μg/ml G418. Cells were split such that they never became >70% confluent.
Intracellular Calcium Flux (FLIPR)
On the day prior to the experiment, 1321N1-hP2X7 or HEK293-rP2X7 cells were released into suspension with calcium-free PBS+Versene and washed by centrifugation with calcium-free PBS to remove the Versene. Cells were resuspended in growth medium at a density of 2.5×10^5 cells/mL and seeded into black walled, clear bottom 96 well plates (50,000 cells/well) approximately 18 hr prior to intracellular calcium flux experiments.
On the day of the experiment, plates were washed with FLIPR buffer (calcium- and magnesium-free Hank's Balanced Salt Solution (HBSS) supplemented with 10 mM Hepes, 2.5 mM probenecid and 2 mM calcium chloride) using a BIO-TEK 96 channel plate washer and incubated with […] fluo-3 dye at 37° C. for one hr. The dye was then removed by plate washing and the cells were allowed to equilibrate for 20 min at room temperature with antagonist or vehicle (FLIPR buffer). Agonist (100 μM BzATP final concentration for hP2X7; 5 μM BzATP final concentration or rP2X7) was added online with the FLIPR and fluorescence measurements made at 1 sec intervals for 60 sec followed by 3 sec intervals for a further 4 min (5 min total). A final addition of 5 μM ionomycin was made and the maximal BzATP-evoked fluorescence normalized to the maximal ionomycin-evoked fluorescence.

Row | pKi | Structure (SMILES)
1 | 7.4925 | COc1cc(Br)c(NC(=O)C2=CNC(=O)CC2c2ccccc2)cc1OC (stereo not drawn) [Compound 1, 6-Oxo-4-phenyl-1,4,5,6-tetrahydro-pyridine-3-carboxylic acid(2-bromo-4,5-dimethoxy-phenyl)-amide]
2 | 6.595 | COc1cc(NC(=O)C2=CNC(=O)CC2c2ccccc2)c(Br)cc1C (stereo not drawn) [Compound 2, 6-Oxo-4-phenyl-1,4,5,6-tetrahydro-pyridine-3-carboxylic acid(2-bromo-5-methoxy-4-methyl-phenyl)-amide]
3 | 5.95 | COc1cc(NC(=O)C2=CNC(=O)CC2c2ccccc2)c(Br)cc1Cl (stereo not drawn) [Compound 3, 6-Oxo-4-phenyl-1,4,5,6-tetrahydro-pyridine-3-carboxylic acid(2-bromo-4-chloro-5-methoxy-phenyl)-]
4 | 6.6 | COc1cc(NC(=O)C2=CNC(=O)CC2c2ccc(F)cc2)c(Br)cc1C (stereo not drawn) [Compound 4, 4-(4-Fluoro-phenyl)-6-oxo-1,4,5,6-tetrahydro-pyridine-3-carboxylic acid(2-bromo-5-methoxy-4-methyl-phenyl)-amide]
5 | 6.726 | COc1cc(NC(=O)C2=CNC(=O)CC2c2cccc(F)c2)c(Br)cc1C (stereo not drawn) [Compound 5, 4-(3-Fluoro-phenyl)-6-oxo-1,4,5,6-tetrahydro-pyridine-3-carboxylic acid(2-bromo-5-methoxy-4-methyl-phenyl)-amide]
6 | 6.166 | COc1cc(NC(=O)C2=CNC(=O)CC2c2ccc(F)cc2)c(Br)cc1Cl (stereo not drawn) [Compound 6, 4-(4-Fluoro-phenyl)-6-oxo-1,4,5,6-tetrahydro-pyridine-3-carboxylic acid(2-bromo-4-chloro-5-methoxy-phenyl)-amide]
7 | 7.463 | COc1cc(Br)c(NC(=O)C2=CNC(=O)CC2c2ccc(F)cc2)cc1OC (stereo not drawn) [Compound 7, 4-(4-Fluoro-phenyl)-6-oxo-1,4,5,6-tetrahydro-pyridine-3-carboxylic acid(2-bromo-4,5-dimethoxy-phenyl)-amide]
8 | 6.766 | COc1cc(NC(=O)C2=CNC(=O)CC2c2cccc(F)c2)c(Br)cc1Cl (stereo not drawn) [Compound 9, 4-(3-Fluoro-phenyl)-6-oxo-1,4,5,6-tetrahydro-pyridine-3-carboxylic acid(2-bromo-4-chloro-5-methoxy-phenyl)-amide]
9 | 5.543 | COc1cc(NC(=O)C2=CNC(=O)CC2c2ccc(F)cc2)ccc1Cl (stereo not drawn) [Compound 10, 4-(4-Fluoro-phenyl)-6-oxo-1,4,5,6-tetrahydro-pyridine-3-carboxylic acid(4-chloro-3-methoxy-phenyl)-amide]
10 | 6.03 | COc1cc(NC(=O)C2=CNC(=O)CC2c2ccc(F)cc2)ccc1C (stereo not drawn) [Compound 11, 4-(4-Fluoro-phenyl)-6-oxo-1,4,5,6-tetrahydro-pyridine-3 carboxylic acid(3-methoxy-4-methyl-phenyl)-amide]
11 | 6.155 | COc1cc(Br)c(NC(=O)C2=CNC(=O)C[C@@H]2c2ccccc2)cc1OC [Compound 12, (R)-6-Oxo-4-phenyl-1,4,5,6-tetrahydro-pyridine-3-carboxylic acid(2-bromo-4,5-dimethoxy-phenyl)-amide]
12 | 7.455 | COc1cc(Br)c(NC(=O)C2=CNC(=O)C[C@H]2c2ccccc2)cc1OC [Compound 13, (S)-6-Oxo-4-phenyl-1,4,5,6-tetrahydro-pyridine-3-carboxylic acid(2-bromo-4,5-dimethoxy-phenyl)-amide]
13 | 6.535 | Cc1cc(C)cc(NC(=O)C2=CNC(=O)CC2c2ccc(F)cc2)c1 (stereo not drawn) [Compound 14, 4-(4-Fluoro-phenyl)-6-oxo-1,4,5,6-tetrahydro-pyridine-3-carboxylic acid(3,5-dimethyl-phenyl)-amide]
14 | 6.43 | COC(=O)c1ccc(C)c(NC(=O)C2=CNC(=O)CC2c2cccc(F)c2)c1 (stereo not drawn) [Compound 16, 3-{[4-(3-Fluoro-phenyl)-6-oxo-1,4,5,6-tetrahydro-pyridine-3-carbonyl]-amino}-4-methyl-benzoic acid methyl ester]
15 | 6.77 | COc1cc(Br)c(NC(=O)C2=CNC(=O)CC2c2cccc(F)c2)cc1OC (stereo not drawn) [Compound 17, 4-(3-Fluoro-phenyl)-6-oxo-1,4,5,6-tetrahydro-pyridine-3-carboxylic acid(2-bromo-4,5-dimethoxy-phenyl)-amide]
16 | 6.08 | COc1ccc(Br)c(NC(=O)C2=CNC(=O)CC2c2ccc(F)cc2)c1 (stereo not drawn) [Compound 18, 4-(4-Fluoro-phenyl)-6-oxo-1,4,5,6-tetrahydro-pyridine-3-carboxylic acid(2-bromo-5-methoxy-phenyl)-amide]
17 | 6.19 | COc1ccc(Br)c(NC(=O)C2=CNC(=O)CC2c2cccc(F)c2)c1 (stereo not drawn) [Compound 19, 4-(3-Fluoro-phenyl)-6-oxo-1,4,5,6-tetrahydro-pyridine-3-carboxylic acid(2-bromo-5-methoxy-phenyl)-amide]
18 | 6.815 | COc1ccc(C)c(NC(=O)C2=CNC(=O)CC2c2cccc(F)c2)c1 (stereo not drawn) [Compound 20, 4-(3-Fluoro-phenyl)-6-oxo-1,4,5,6-tetrahydro-pyridine-3-carboxylic acid(5-methoxy-2-methyl-phenyl)-amide]
19 | 6.02 | CC(=O)Nc1ccc(Cl)c(NC(=O)C2=CNC(=O)CC2c2cccc(F)c2)c1 (stereo not drawn) [Compound 21, 4-(3-Fluoro-phenyl)-6-oxo-1,4,5,6-tetrahydro-pyridine-3-carboxylic acid(5-acetylamino-2-chloro-phenyl)-amide]
20 | 6.12 | COc1cc(NC(=O)C2=CNC(=O)CC2c2cccc(F)c2)c(Cl)cc1Cl (stereo not drawn) [Compound 22, 4-(3-Fluoro-phenyl)-6-oxo-1,4,5,6-tetrahydro-pyridine-3-carboxylic acid(2,4-dichloro-5-methoxy-phenyl)-amide]
21 | 5.92 | COC(=O)c1cc(Br)c(NC(=O)C2=CNC(=O)CC2c2cccc(F)c2)cc1OC (stereo not drawn) [Compound 23, 5-Bromo-4-{[4-(3-fluoro-phenyl)-6-oxo-1,4,5,6-tetrahydro-pyridine-3-carbonyl]-amino}-2-methoxy-benzoic acid methyl ester]
22 | 7.69 | COc1cc(C)c(NC(=O)C2=CNC(=O)CC2c2cccc(F)c2)cc1OC (stereo not drawn) [Compound 24, 4-(3-Fluoro-phenyl)-6-oxo-1,4,5,6-tetrahydro-pyridine-3-carboxylic acid(4,5-dimethoxy-2-methyl-phenyl)-amide]
23 | 5.395 | O=C1CC(c2cccc(F)c2)C(C(=O)Nc2cc(O)ccc2Cl)=CN1 (stereo not drawn) [Compound 25, 4-(3-Fluoro-phenyl)-6-oxo-1,4,5,6-tetrahydro-pyridine-3-carboxylic acid(2-chloro-5-hydroxy-phenyl)-amide]
24 | 5.73 | Cc1ccc(Cl)c(NC(=O)C2=CNC(=O)CC2c2cccc(F)c2)c1F (stereo not drawn) [Compound 26, 4-(3-Fluoro-phenyl)-6-oxo-1,4,5,6-tetrahydro-pyridine-3-carboxylic acid(6-chloro-2-fluoro-3-methyl-phenyl)-amide]
25 | 5.18 | O=C1CC(c2cccc(F)c2)C(C(=O)Nc2cc(Cl)ccc2OC(F)F)=CN1 (stereo not drawn) [Compound 27, 4-(3-Fluoro-phenyl)-6-oxo-1,4,5,6-tetrahydro-pyridine-3-carboxylic acid(5-chloro-2-difluoromethoxy-phenyl)-amide]
26 | 5.215 | O=C1CC(c2cccc(F)c2)C(C(=O)Nc2c(F)cc(F)cc2Cl)=CN1 (stereo not drawn) [Compound 28, 4-(3-Fluoro-phenyl)-6-oxo-1,4,5,6-tetrahydro-pyridine-3-carboxylic acid(2-chloro-4,6-difluoro-phenyl)-amide]
27 | 6.405 | COc1cc(NC(=O)C2=CNC(=O)C[C@@H]2c2cccc(F)c2)c(Br)cc1C [Compound 29, (R)-4-(3-Fluoro-phenyl)-6-oxo-1,4,5,6-tetrahydro-pyridine-3-carboxylic acid(2-bromo-5-methoxy-4-methyl-phenyl)-amide]
